Measured values taken from PubChem BioAssay AID1918994 (Molecular Pharmacology Branch, DTP, NCI, 2023).
Several values for one entry are separate records, joined by “and”; a condition that tells them apart may be missing. Equal entries are not always repeated.

Tested on: 292921-168-R-J2-PDC complex spheroid growth
Assay: Anticancer human tumor 292921-168-R-J2-PDC patient-derived pancreatic carcinoma cell line growth inhibition [AhR]
Details: for viability, T/C: stronger effect = lower value
Procedure, shortened: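 Complex tumor spheroids co-cultured with HUVEC and human MSC stroma; AhR antagonists tested in combination with standard-of-care and investigational agents. Top concentration at or near clinical Cmax (else 10 microM), half-log dilutions; growth expressed as percent test/control.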

[1] = curve of first compound, second compound 0.1 µM
[2] = curve of first compound, second compound 0.316 µM
[3] = curve of first compound, second compound 1 µM
[4] = curve of first compound, second compound 3.16 µM
[5] = curve of first compound, second compound 10 µM
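Further: spheroids exposed to compounds for seven days after three days of growth.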

CC(C)CC(NC(=O)C(Cc1ccccc1)NC(=O)c1cnccn1)B(O)O (configuration not stated) + CC(CO)NC(=O)c1cc(-c2ccc(Cl)cc2)nn(-c2cnn(C)c2)c1=O
IC50 [1]: 6.1 nM
IC50 [2]: 5.42 nM
IC50 [3]: 6.01 nM
IC50 [4]: 5.29 nM
IC50 [5]: 4.43 nM
viability, T/C (second compound 0.1 µM, first compound 0.000949 µM): 105%
viability, T/C (second compound 0.1 µM, first compound 0.003 µM): 107%
viability, T/C (second compound 0.1 µM, first compound 0.00949 µM): 15.2%
viability, T/C (second compound 0.1 µM, first compound 0.03 µM): 2.8%
viability, T/C (second compound 0.1 µM, first compound 0.0949 µM): 1.2%
viability, T/C (second compound 0.1 µM, first compound 0.3 µM): 0.49%
viability, T/C (second compound 0.316 µM, first compound 0.000949 µM): 109%
viability, T/C (second compound 0.316 µM, first compound 0.003 µM): 90.4%
viability, T/C (second compound 0.316 µM, first compound 0.00949 µM): 11.8%
viability, T/C (second compound 0.316 µM, first compound 0.03 µM): 1.8%
viability, T/C (second compound 0.316 µM, first compound 0.0949 µM): 0.5%
viability, T/C (second compound 0.316 µM, first compound 0.3 µM): 0.59%
viability, T/C (second compound 1 µM, first compound 0.000949 µM): 101%
viability, T/C (second compound 1 µM, first compound 0.003 µM): 102%
viability, T/C (second compound 1 µM, first compound 0.00949 µM): 15.8%
viability, T/C (second compound 1 µM, first compound 0.03 µM): 2.98%
viability, T/C (second compound 1 µM, first compound 0.0949 µM): 1.25%
viability, T/C (second compound 1 µM, first compound 0.3 µM): 1.42%
viability, T/C (second compound 3.16 µM, first compound 0.000949 µM): 85.8%
viability, T/C (second compound 3.16 µM, first compound 0.003 µM): 85.6%
viability, T/C (second compound 3.16 µM, first compound 0.00949 µM): 13.2%
viability, T/C (second compound 3.16 µM, first compound 0.03 µM): 2.3%
viability, T/C (second compound 3.16 µM, first compound 0.0949 µM): 2.01%
viability, T/C (second compound 3.16 µM, first compound 0.3 µM): 1.89%
viability, T/C (second compound 10 µM, first compound 0.000949 µM): 77.6%
viability, T/C (second compound 10 µM, first compound 0.003 µM): 70%
viability, T/C (second compound 10 µM, first compound 0.00949 µM): 11%
viability, T/C (second compound 10 µM, first compound 0.03 µM): 1.4%
viability, T/C (second compound 10 µM, first compound 0.0949 µM): 2.28%
viability, T/C (second compound 10 µM, first compound 0.3 µM): 2.01%

Nc1ncn(C2CC(O)C(CO)O2)c(=O)n1 (configuration not stated)
viability, T/C (compound 0.00316 µM): 107% and 102% and 96.8%
viability, T/C (compound 0.01 µM): 99.8% and 97.5% and 103%
viability, T/C (compound 0.0316 µM): 95.7% and 100% and 89.4%
viability, T/C (compound 0.1 µM): 93.7% and 93.1% and 77.7%
viability, T/C (compound 0.316 µM): 86.8% and 83% and 89%
viability, T/C (compound 1 µM): 76.3% and 76.8% and 78.2%
IC50 (curve of compound): > 1000 nM

CC1COCCN1c1cc(-c2ccnn2C)c2ccnc(-c3ccn[nH]3)c2n1 (configuration not stated) + CC(CO)NC(=O)c1cc(-c2ccc(Cl)cc2)nn(-c2cnn(C)c2)c1=O
IC50 [1]: 43.3 nM
IC50 [2]: 46.4 nM
IC50 [3]: 33 nM
IC50 [4]: 27.9 nM
IC50 [5]: 10.3 nM
viability, T/C (second compound 0.1 µM, first compound 0.00316 µM): 93.5%
viability, T/C (second compound 0.1 µM, first compound 0.01 µM): 91%
viability, T/C (second compound 0.1 µM, first compound 0.0316 µM): 56.1%
viability, T/C (second compound 0.1 µM, first compound 0.1 µM): 31.4%
viability, T/C (second compound 0.1 µM, first compound 0.316 µM): 22.7%
viability, T/C (second compound 0.1 µM, first compound 1 µM): 19.7%
viability, T/C (second compound 0.316 µM, first compound 0.00316 µM): 96.8%
viability, T/C (second compound 0.316 µM, first compound 0.01 µM): 84.1%
viability, T/C (second compound 0.316 µM, first compound 0.0316 µM): 56.6%
viability, T/C (second compound 0.316 µM, first compound 0.1 µM): 35.3%
viability, T/C (second compound 0.316 µM, first compound 0.316 µM): 22%
viability, T/C (second compound 0.316 µM, first compound 1 µM): 17.8%
viability, T/C (second compound 1 µM, first compound 0.00316 µM): 100%
viability, T/C (second compound 1 µM, first compound 0.01 µM): 90.8%
viability, T/C (second compound 1 µM, first compound 0.0316 µM): 49%
viability, T/C (second compound 1 µM, first compound 0.1 µM): 29.1%
viability, T/C (second compound 1 µM, first compound 0.316 µM): 21.5%
viability, T/C (second compound 1 µM, first compound 1 µM): 17.3%
viability, T/C (second compound 3.16 µM, first compound 0.00316 µM): 86.6%
viability, T/C (second compound 3.16 µM, first compound 0.01 µM): 75.2%
viability, T/C (second compound 3.16 µM, first compound 0.0316 µM): 46.9%
viability, T/C (second compound 3.16 µM, first compound 0.1 µM): 24.9%
viability, T/C (second compound 3.16 µM, first compound 0.316 µM): 17.7%
viability, T/C (second compound 3.16 µM, first compound 1 µM): 17.1%
viability, T/C (second compound 10 µM, first compound 0.00316 µM): 62.8%
viability, T/C (second compound 10 µM, first compound 0.01 µM): 51%
viability, T/C (second compound 10 µM, first compound 0.0316 µM): 26.8%
viability, T/C (second compound 10 µM, first compound 0.1 µM): 19.7%
viability, T/C (second compound 10 µM, first compound 0.316 µM): 15.3%
viability, T/C (second compound 10 µM, first compound 1 µM): 15.8%
